From a compilation of properties of binary mixtures (doi:10.1016/j.molliq.2020.112816)

Assay: xn = mol fraction of the nth substance listed
Details: 101 kPa

NC=O + CCCC[n+]1ccn(C)c1.F[B-](F)(F)F
Details	speed of sound [m/s]	viscosity [mPa·s]
293.15 K, x2 = 0.0675	1614.2	4.01
293.15 K, x2 = 0.135	1613.4	4.81
293.15 K, x2 = 0.2054	1611.9	7
293.15 K, x2 = 0.4499	1602.9	24.97
293.15 K, x2 = 0.6639	1593.2	54.2
293.15 K, x2 = 0.7588	1588.7	71.4
293.15 K, x2 = 0.8107	1586.2	81.8
293.15 K, x2 = 0.8626	1583.7	93.3
293.15 K, x2 = 0.9313	1580.3	109.6
298.15 K, x2 = 0	1602.4	3.27
298.15 K, x2 = 0.0675	1603	3.73
298.15 K, x2 = 0.135	1602.3	4.65
298.15 K, x2 = 0.2054	1600.8	6.6
298.15 K, x2 = 0.3629	1595.4	14.43
298.15 K, x2 = 0.4499	1591.8	20.95
298.15 K, x2 = 0.5095	1589.3	26.31
298.15 K, x2 = 0.569	1586.6	32.4
298.15 K, x2 = 0.6639	1582.2	43.6
298.15 K, x2 = 0.8626	1572.7	73.4
298.15 K, x2 = 0.9313	1569.3	85.6
303.15 K, x2 = 0	1590.5	2.918
303.15 K, x2 = 0.0675	1591.4	3.28
303.15 K, x2 = 0.135	1590.9	4.23
303.15 K, x2 = 0.2054	1589.4	5.84
303.15 K, x2 = 0.2758	1587.2	8.24
303.15 K, x2 = 0.3629	1584	12.35
303.15 K, x2 = 0.5095	1578	21.66
303.15 K, x2 = 0.569	1575.3	26.36
303.15 K, x2 = 0.6639	1570.9	35
303.15 K, x2 = 0.7588	1566.5	44.9
308.15 K, x2 = 0	1578.3	2.607
308.15 K, x2 = 0.0675	1579.4	3.049
308.15 K, x2 = 0.135	1579	3.99
308.15 K, x2 = 0.2054	1577.5	5.48
308.15 K, x2 = 0.3629	1572.2	10.72
308.15 K, x2 = 0.5095	1566.2	17.95
308.15 K, x2 = 0.569	1563.6	21.5
308.15 K, x2 = 0.6639	1559.3	27.92
308.15 K, x2 = 0.7588	1554.8	35.3
308.15 K, x2 = 0.8107	1552.3	39.7
308.15 K, x2 = 0.8626	1549.8	44.5
313.15 K, x2 = 0	1565.9	2.328
313.15 K, x2 = 0.0675	1567.3	2.599
313.15 K, x2 = 0.135	1567	3.4
313.15 K, x2 = 0.2758	1563.3	6.21
313.15 K, x2 = 0.5095	1554.2	14.39
313.15 K, x2 = 0.569	1551.6	17.16
313.15 K, x2 = 0.6639	1547.3	22.22
313.15 K, x2 = 0.7588	1542.9	28.02
313.15 K, x2 = 0.8107	1540.4	31.6
313.15 K, x2 = 0.8626	1537.8	35.2
313.15 K, x2 = 0.9313	1534.3	40.4
318.15 K, x2 = 0	1553.1	2.096
318.15 K, x2 = 0.0675	1554.9	2.4
318.15 K, x2 = 0.135	1554.6	2.982
318.15 K, x2 = 0.2054	1553	3.88
318.15 K, x2 = 0.3629	1547.7	7.11
318.15 K, x2 = 0.4499	1544.2	9.72
318.15 K, x2 = 0.5095	1541.8	11.78
318.15 K, x2 = 0.7588	1530.5	23.24
318.15 K, x2 = 0.8107	1528	26.2
318.15 K, x2 = 0.9313	1521.9	33.8

CCCC[n+]1ccn(C)c1.F[B-](F)(F)F + NC=O
x1 = 1
Details	speed of sound [m/s]	viscosity [mPa·s]
293.15 K	1576.8	127.6
298.15 K	1565.7	98.9
303.15 K	1554.4	76.3
313.15 K	1530.5	46.2
